From ChEMBL document CHEMBL1201862, “PubChem BioAssay data set” (2004)
Calls of active or inactive are those of the source.

Key:
[1] = HEp-2 cell cytotoxicity, dose response, cytotoxicity control for RSV inhibitor project, HTS (AID 2410); type: functional; settings: human respiratory syncytial virus
cells [2] = type: functional, cell-based
[3] = cytotoxicity toward NIH3T3 fibroblasts, dose response, counter-screen, cell-based, ATP luminescence, mouse fibroblasts (AID 2010); type: functional;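 note: cells exposed to compound for about 90 hours before reading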
cells [4] = type: functional, cell-based; remark: listed apart in the source
[5] = inhibitors of intracellular T. cruzi replication, confirmation, NIH3T3 host cells, beta-gal luminescence (AID 2044); type: functional, cell-based;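 note: intracellular parasites grown in NIH/3T3 mouse fibroblasts as host cells; luminescent beta-galactosidase reporter signal from transgenic T. cruzi replicating inside host cells; inhibitors lower the luminescence signal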
[6] = molecular target: Glucose-6-phosphate 1-dehydrogenase (Homo sapiens, UniProt P11413); assay: human G6PD enzyme inhibitors, dose response, selectivity assay for P. falciparum G6PD inhibitor project, biochemical, fluorescence (AID 504792); type: functional
Sequence of Glucose-6-phosphate 1-dehydrogenase (P11413 whole entry): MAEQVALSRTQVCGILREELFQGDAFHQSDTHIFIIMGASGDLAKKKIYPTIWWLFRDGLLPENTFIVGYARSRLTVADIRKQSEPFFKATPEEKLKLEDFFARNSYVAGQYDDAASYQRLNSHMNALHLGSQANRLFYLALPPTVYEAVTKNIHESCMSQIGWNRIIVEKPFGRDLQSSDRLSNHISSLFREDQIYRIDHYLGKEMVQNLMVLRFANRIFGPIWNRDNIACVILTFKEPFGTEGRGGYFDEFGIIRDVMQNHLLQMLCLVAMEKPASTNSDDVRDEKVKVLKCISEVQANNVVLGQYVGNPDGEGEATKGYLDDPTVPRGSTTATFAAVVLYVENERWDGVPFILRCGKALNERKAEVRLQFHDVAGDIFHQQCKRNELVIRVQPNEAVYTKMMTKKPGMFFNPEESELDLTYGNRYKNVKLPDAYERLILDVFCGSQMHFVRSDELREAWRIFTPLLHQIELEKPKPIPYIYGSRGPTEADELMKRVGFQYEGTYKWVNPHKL

Beta-galactosidase = Beta-galactosidase (Escherichia coli, UniProt Q8VNN2); assay: Dose response counterscreen for EBI2 assay utilizing the enzyme, b-galactosidase.; type: functional
Sequence of Beta-galactosidase (Q8VNN2 whole entry): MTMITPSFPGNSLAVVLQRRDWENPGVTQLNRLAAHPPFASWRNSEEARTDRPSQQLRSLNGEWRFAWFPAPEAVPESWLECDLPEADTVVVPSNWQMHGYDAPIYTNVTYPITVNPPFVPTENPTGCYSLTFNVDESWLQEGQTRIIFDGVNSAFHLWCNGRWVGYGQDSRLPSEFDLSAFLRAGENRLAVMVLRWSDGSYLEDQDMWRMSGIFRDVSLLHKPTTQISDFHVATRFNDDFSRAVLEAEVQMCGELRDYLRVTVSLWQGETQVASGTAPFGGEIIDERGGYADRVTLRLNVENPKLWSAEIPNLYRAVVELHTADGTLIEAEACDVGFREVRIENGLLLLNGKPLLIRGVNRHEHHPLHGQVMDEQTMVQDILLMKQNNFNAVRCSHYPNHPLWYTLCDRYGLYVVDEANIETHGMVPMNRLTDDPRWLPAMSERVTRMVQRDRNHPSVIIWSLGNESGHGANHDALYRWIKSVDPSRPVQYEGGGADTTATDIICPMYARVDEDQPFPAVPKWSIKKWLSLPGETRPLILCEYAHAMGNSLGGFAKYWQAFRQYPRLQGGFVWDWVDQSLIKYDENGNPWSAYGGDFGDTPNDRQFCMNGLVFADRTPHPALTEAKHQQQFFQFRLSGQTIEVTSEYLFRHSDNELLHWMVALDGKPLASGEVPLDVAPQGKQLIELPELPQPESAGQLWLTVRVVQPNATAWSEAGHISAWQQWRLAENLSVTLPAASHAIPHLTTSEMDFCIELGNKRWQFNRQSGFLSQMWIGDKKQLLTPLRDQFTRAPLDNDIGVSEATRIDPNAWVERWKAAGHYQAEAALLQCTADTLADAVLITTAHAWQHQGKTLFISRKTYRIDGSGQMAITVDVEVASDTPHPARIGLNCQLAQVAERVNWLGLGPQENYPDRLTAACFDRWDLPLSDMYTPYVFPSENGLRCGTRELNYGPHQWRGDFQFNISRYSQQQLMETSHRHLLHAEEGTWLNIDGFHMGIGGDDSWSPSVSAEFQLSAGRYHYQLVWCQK

[7] = intracellular Trypanosoma cruzi inhibitors in host cells – cell-based, plate reader, cherry-pick samples, set 3, dose response (AID 651818); type: functional;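 note: compounds incubated with infected cells for about four days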
[8] = molecular target: Hepatocyte nuclear factor 4-alpha (Homo sapiens, UniProt P41235); type: functional, cell-based;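 note: biochemical luminescence-based dose-response counterscreen measuring inhibition of HNF4 dimerization, run alongside a screen for blockers of ABHD5–perilipin-5 interaction; split luciferase complementation of HNF4 fusion proteins in cell lysate measuring dimerization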
Sequence of Hepatocyte nuclear factor 4-alpha (P41235 whole entry, the tested form may be a part): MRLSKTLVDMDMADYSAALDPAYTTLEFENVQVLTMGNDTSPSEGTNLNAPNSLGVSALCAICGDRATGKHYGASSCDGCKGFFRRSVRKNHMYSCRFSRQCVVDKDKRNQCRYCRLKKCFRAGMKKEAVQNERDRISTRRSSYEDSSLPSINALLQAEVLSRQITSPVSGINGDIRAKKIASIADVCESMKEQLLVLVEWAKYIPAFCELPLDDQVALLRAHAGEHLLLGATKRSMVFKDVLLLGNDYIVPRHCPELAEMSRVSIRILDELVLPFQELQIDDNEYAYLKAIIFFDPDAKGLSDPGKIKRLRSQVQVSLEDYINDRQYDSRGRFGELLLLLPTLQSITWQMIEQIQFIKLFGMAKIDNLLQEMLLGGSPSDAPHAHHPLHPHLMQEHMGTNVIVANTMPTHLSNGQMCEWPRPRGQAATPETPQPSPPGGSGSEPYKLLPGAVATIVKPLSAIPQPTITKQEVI

[9] = HEK293T cytotoxicity, dose response, cytotoxicity control for miR-122 modulator project, cell-based, inhibitor set, cherry-pick, set 2 (AID 720697); type: functional
[10] = miR-122 activators in hepatoma reporter cells, dose response, cell-based, Huh7 psiCHECK-miR122, Renilla luciferase, cherry-picked (AID 651956); type: functional;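 note: huh7 hepatoma cells stably carrying a psiCHECK-2 miR-122 sensor plasmid; renilla luciferase signal reporting endogenous miR-122 activity after 48 h compound exposure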
[11] = HEK293 cell viability, dose response, counter-screen for EBV LMP1 inhibitor project, dry powder, set 2 (AID 624374); type: functional
HeLa = assay: HeLa cell cytotoxicity, dose response, cytotoxicity control, ATP luminescence, cherry-pick samples (AID 687004); type: functional, cell-based; settings: Homo sapiens
[12] = T. cruzi growth inhibition in host cells, dose response, cell-based, plate reader, dry powder, set 2 (AID 652275); type: functional
[13] = molecular target: Long-chain-fatty-acid--AMP ligase FadD28 (Mycobacterium tuberculosis, UniProt P9WQ59); assay: Fluorescence polarization aasay to screen for inhibitors that compete for the binding of FadD28 to a bisubstrate Measured in Biochemical System Using Plate Reader - 2147-01_Inhibitor_Dose_CherryPick_Activity.; type: functional, Mycobacterium tuberculosis H37Rv
Sequence of Long-chain-fatty-acid--AMP ligase FadD28 (P9WQ59 whole entry): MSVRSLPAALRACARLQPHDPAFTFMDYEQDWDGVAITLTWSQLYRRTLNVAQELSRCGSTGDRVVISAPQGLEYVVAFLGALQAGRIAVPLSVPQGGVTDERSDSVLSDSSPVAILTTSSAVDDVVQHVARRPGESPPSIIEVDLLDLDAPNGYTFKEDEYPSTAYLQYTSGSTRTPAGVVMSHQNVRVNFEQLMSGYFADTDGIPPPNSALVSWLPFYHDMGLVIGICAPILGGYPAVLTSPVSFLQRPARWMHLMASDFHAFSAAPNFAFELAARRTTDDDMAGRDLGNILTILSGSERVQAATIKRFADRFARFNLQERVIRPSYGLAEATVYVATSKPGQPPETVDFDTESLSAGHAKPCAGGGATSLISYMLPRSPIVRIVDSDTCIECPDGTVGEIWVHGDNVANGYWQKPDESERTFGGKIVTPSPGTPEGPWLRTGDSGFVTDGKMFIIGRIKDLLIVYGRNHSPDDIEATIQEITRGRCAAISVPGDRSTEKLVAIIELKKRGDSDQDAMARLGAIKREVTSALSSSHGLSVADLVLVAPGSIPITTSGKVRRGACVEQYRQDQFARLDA

[14] = microbe, parasite or virus in culture; type: functional; settings: Mycobacterium tuberculosis
[15] = molecular target: Fructose-bisphosphate aldolase (Mycobacterium tuberculosis, UniProt P9WQA3); assay: Fluorescence-based biochemical high throughput dose response assay for inhibitors of the fructose-bisphosphate aldolase (FBA) of M. tuberculosis.; type: functional
Sequence of Fructose-bisphosphate aldolase (P9WQA3 whole entry): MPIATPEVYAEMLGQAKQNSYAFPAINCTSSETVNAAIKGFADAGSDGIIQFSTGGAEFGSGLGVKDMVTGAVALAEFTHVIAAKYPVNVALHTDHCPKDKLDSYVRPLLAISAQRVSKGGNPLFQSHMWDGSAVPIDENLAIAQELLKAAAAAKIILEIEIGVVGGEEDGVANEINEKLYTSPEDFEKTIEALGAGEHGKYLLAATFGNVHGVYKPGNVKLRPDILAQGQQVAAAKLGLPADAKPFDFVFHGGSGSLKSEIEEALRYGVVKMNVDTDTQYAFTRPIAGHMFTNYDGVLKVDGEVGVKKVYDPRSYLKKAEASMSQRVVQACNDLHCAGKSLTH

COc1ccc(Nc2cc(C)c3c(O)cccc3n2)cc1
CC50 [1]: 22.6 µM (active) | IC50 (cells [2]): > 29.9 µM (inactive) | EC50 [3]: > 60 µM (inconclusive) | EC50 (cells [4]): > 29.9 µM (inactive) | EC50 [5]: 1.94 µM (active) | IC50 [6]: 56.3 µM (inactive)

O=C(c1ccc(-n2cccn2)cc1)N1CCN(c2ncccc2C(F)(F)F)CC1
IC50 (Beta-galactosidase): > 80 µM (inactive)

COc1ccc(NC(=O)Nc2ccc3c(c2)CC(=O)N([C@H](C)CO)C[C@H](C)[C@H](CN(C)Cc2ccc(C(=O)Nc4ccccc4N)cc2)O3)cc1
AC50 [7]: 4.17 µM (active)

COc1ccc(C(C(=O)Nc2c(C)cccc2C)n2c(=O)c(-c3ccco3)nc3ccccc32)cc1 (configuration not stated)
IC50 [8]: 2.42 µM (active)

C[C@@H]1CN([C@@H](C)CO)S(=O)(=O)c2ccc(C#Cc3ccncc3)cc2O[C@@H]1CN(C)C(=O)Nc1ccc2c(c1)OCO2
AC50 [9]: 10.7 µM (active) | AC50 [10]: 6.9 µM (active)

C[C@@H](NC(=O)C[C@H]1C[C@@H]2c3cc(NC(=O)c4cccnc4)ccc3O[C@@H]2[C@@H](CO)O1)c1ccccc1
AbsAC35 [11]: 222.38 µM

COC(=O)C1=C(C)N(Cc2ccc(F)cc2)C(=S)NC1c1ccc(Cl)cc1 (configuration not stated)
AC50 (HeLa): > 52 µM (inactive)

CC(C)N1C[C@@H](CN(C)CCc2ccc(Cl)cc2)Oc2c(NC(=O)c3ccncc3)cccc2C1=O
AC50 [12]: 0.000332 µM (active)

O=C(N/N=C/c1c[nH]c2ccccc12)c1cc(Br)ccc1O
AC50 [13]: 7.18 µM (active)

C(=C\c1nccc2c1[nH]c1ccccc12)/c1ccccc1
CC50 [14]: 25.4 µM (active) | IC50 [15]: > 0.37 µM (active)
